Source: paper PMC9305971, “Development of [^18F]AmBF3 Tetrazine for Radiolabeling of Peptides: Preclinical Evaluation and PET Imaging of [^18F]AmBF3-PEG7-Tyr^3-Octreotide in an AR42J Pancreatic Carcinoma Model” (Bioconjugate Chemistry, 2022)
Where two headings read alike, the source gives them in different places.

Legend:
[1] = Hydrolytic stability in 0.01 M PBS / formulated solution (radio-HPLC); assay type: physicochemical; details: 4% ethanol-0.01 M PBS (pH 7.4)
Protocol: (§1) Lipophilicity was determined with the shake-flask method as a distribution coefficient between 0.01 M PBS and octanol. Purified radiotracer [^18F]6 (10 μL, ∼200 kBq, 1.5 nmol), [^18F]14 (20 μL, ∼260 kBq, 125 pmol), or [^18F]15 (20 μL, 144 kBq, 67 pmol) in a polypropylene tube containing 1500–2000 μL of each in a 1:1 mixture (1-octanol, 0.02 M PBS, pH 7.4) was shaken mechanically (500 rpm, 10 min) and centrifuged (1000g, 5 min), and samples from each layer (400 μL, n = 4) were measured with a γ-counter. The log D7.4 was calculated as a distribution between the two layers at pH 7.4. [^18F]6 (10 MBq, 40 nmol) diluted with 0.01 M PBS at pH 7.4 (≤1% ethanol, 5300 μL) was incubated for 180 min. At selected time points (5, 30, 60, 90, 120, 150, and 180 min), a sample (100 μL) was injected to radio-HPLC. [^18F]14 and [^18F]15 (29 MBq, 10 nmol) diluted in 2000 μL of 0.01 M PBS (≤1% ethanol) were left to incubate. A sample of [^18F]14 (100 μL) after 9 hours and [^18F]15 at selected time points between 30 and 335 min were injected into HPLC (method A). [^18F]15 (0.6 MBq, 0.134 nmol, 200 μL) formulated in ≤5% EtOH-1 × PBS was added and incubated in 2000 μL of PBS-50% human plasma at 37 °C. A 100 μL sample (at 60, 120, 180, and 240 min, n = 2) was diluted with 200 μL of cold acetonitrile and centrifuged (10,000g, 5 min). After centrifugation, a 100 μL sample of the supernatant was injected for radio-HPLC analysis.

[2] = Enzymatic stability in 50% human plasma-0.01 M PBS; assay type: in vitro ADME; details: 50% (v/v) human plasma-0.01 M PBS
Protocol: as §1, with “After centrifugation, a 100 μL sample of the supernatant was injected for radio-HPLC analysis.” left out

[3] = Ex vivo biodistribution of [18F]14 and [18F]15; assay type: in vivo, Rj:NMRI-Foxn1^nu/nu mice; details: mouse, iv, 0.2 nmol; for tissue to tissue ratio at 1 h: Rj:NMRI-Foxn1^nu/nu, tumor (AR42J xenograft) / blood, total radioactivity, read-out: T/blood ratio; for tissue to tissue ratio at 1 h / tissue uptake at 1 h: 60 min post injection; for tissue uptake at 1 h / tissue uptake at 2 h: i.v.; for tissue uptake at 2 h: 120 min post injection
Protocol: (§2) [^18F]14 and [^18F]15 in ≤4% ethanol–0.01 M PBS were administered intravenously (1.2 ± 0.0 and 2.0 ± 0.1 MBq, respectively, 0.2 nmol, 150 μL) to AR42J tumor-bearing Rj:NMRI-Foxn1^nu/nu mice. At predetermined time points (t = 30, 60, 120, and 240 min), animals were euthanized with CO2 asphyxiation and cervical dislocation, and then the organs were harvested, washed with water, and blotted dry, following with weighing and γ counting from which the % ID/g in tissues was determined.

AR42J xenografts = experiment: Ex vivo biodistribution of [18F]14 and [18F]15; assay type: in vivo, Rj:NMRI-Foxn1^nu/nu mice; details: for urine: 60 min post injection, i.v., baseline; for defluorination in vivo (in words): judged from bone uptake
Protocol: as §2

[4] = baseline, read-out: gallbladder
[5] = blocked with octreotide, read-out: blood
[6] = blocked with octreotide, read-out: brain
[7] = blocked with octreotide, read-out: gallbladder
[8] = blocked with octreotide, read-out: heart
[9] = blocked with octreotide, read-out: kidney
[10] = blocked with octreotide, read-out: liver
[11] = blocked with octreotide, read-out: lung
[12] = blocked with octreotide, read-out: muscle
[13] = blocked with octreotide, read-out: pancreas
[14] = blocked with octreotide, read-out: skin
[15] = blocked with octreotide, read-out: spleen
[16] = blocked with octreotide, read-out: urine
[17] = large intestine with contents, baseline, read-out: L. I. (+cont.), large intestine
[18] = large intestine with contents, blocked with octreotide, read-out: L. I. (+cont.), large intestine
[19] = occipital bone, blocked with octreotide, read-out: bone, occipital
[20] = occipital bone, read-out: bone, occipital
[21] = small intestine with contents, baseline, read-out: S. I. (+cont.), small intestines
[22] = small intestine with contents, blocked with octreotide, read-out: S. I. (+cont.), small intestines
[23] = stomach with contents, baseline, read-out: stomach (+cont.)
[24] = stomach with contents, blocked with octreotide, read-out: stomach (+cont.)
[25] = tibia bone, baseline, read-out: bone, tibia
[26] = tibia bone, blocked with octreotide, read-out: bone, tibia
[27] = tibia bone, read-out: bone, tibia
[28] = tumor, AR42J xenograft, baseline, read-out: tumor uptake
[29] = tumor, AR42J xenograft, blocked with octreotide, read-out: tumor uptake

## C[C@@H](O)[C@@H]1NC(=O)[C@H](CCCCN)NC(=O)[C@@H](Cc2c[nH]c3ccccc23)NC(=O)[C@H](Cc2ccc(O)cc2)NC(=O)[C@@H](NC(=O)[C@@H](Cc2ccccc2)NC(=O)CCOCCOCCOCCOCCON=Cc2ccc(C(=O)NCCOCCOCCOCCNC(=O)OC3CCCc4cnnc(-c5ccc(CC(=O)NCC[N+](C)(C)C[B-](F)(F)F)cc5)c4CC3)cc2)CSSC[C@@H](C(=O)N[C@H](CO)[C@@H](C)O)NC1=O (some centres unmarked) [[^18F]15]
[1]; several time points up to 6 h
  stability in the formulated solution: stable
[2]; 37 °C
  enzymatic stability, time stable: at least 180 min
[3]; blocked
  tissue to tissue ratio at 1 h: 0.4
[3]; baseline
  tissue to tissue ratio at 1 h: 0.5
[3]; baseline, read-out: blood
  tissue uptake at 1 h: 9.6 ± 3.3 %ID/g
[3]; baseline, read-out: brain
  tissue uptake at 1 h: 0.3 ± 0.1 %ID/g
[3]; [4]
  tissue uptake at 1 h: 9.1 ± 7 %ID/g
[3]; baseline, read-out: heart
  tissue uptake at 1 h: 2.6 ± 0.6 %ID/g
[3]; baseline, read-out: kidney
  tissue uptake at 1 h: 21 ± 4.5 %ID/g
[3]; baseline, read-out: liver
  tissue uptake at 1 h: 19 ± 5.4 %ID/g
[3]; baseline, read-out: lung
  tissue uptake at 1 h: 5.4 ± 2.3 %ID/g
[3]; baseline, read-out: muscle
  tissue uptake at 1 h: 1.1 ± 0.9 %ID/g
[3]; baseline, read-out: pancreas
  tissue uptake at 1 h: 1.6 ± 0.5 %ID/g
[3]; baseline, read-out: skin
  tissue uptake at 1 h: 2.4 ± 0.9 %ID/g
[3]; baseline, read-out: spleen
  tissue uptake at 1 h: 1.4 ± 0.3 %ID/g
[3]; baseline, read-out: urine
  tissue uptake at 1 h: ~174 %ID/g
[3]; [5]
  tissue uptake at 1 h: 7.2 ± 2.5 %ID/g
[3]; [6]
  tissue uptake at 1 h: 0.2 ± 0.1 %ID/g
[3]; [7]
  tissue uptake at 1 h: 18.8 ± 10.3 %ID/g
[3]; [8]
  tissue uptake at 1 h: 2.1 ± 0.5 %ID/g
[3]; [9]
  tissue uptake at 1 h: 15.9 ± 2.7 %ID/g
[3]; [10]
  tissue uptake at 1 h: 11.8 ± 4.7 %ID/g
[3]; [11]
  tissue uptake at 1 h: 3.6 ± 1.4 %ID/g
[3]; [12]
  tissue uptake at 1 h: 0.5 ± 0.1 %ID/g
[3]; [13]
  tissue uptake at 1 h: 0.9 ± 0.5 %ID/g
[3]; [14]
  tissue uptake at 1 h: 1.6 ± 0.2 %ID/g
[3]; [15]
  tissue uptake at 1 h: 0.9 ± 0.2 %ID/g
[3]; [16]
  tissue uptake at 1 h: 303 ± 146 %ID/g
[3]; [17]
  tissue uptake at 1 h: 1 ± 0.7 %ID/g
[3]; [18]
  tissue uptake at 1 h: 0.7 ± 0.3 %ID/g
[3]; occipital bone, baseline, read-out: bone, occipital
  tissue uptake at 1 h: 0.9 ± 0.3 %ID/g
[3]; [19]
  tissue uptake at 1 h: 1 ± 0.3 %ID/g
[3]; [20]
  tissue uptake at 2 h: 0.6 ± 0.1 %ID/g
[3]; [21]
  tissue uptake at 1 h: 3.6 ± 2.1 %ID/g
[3]; [22]
  tissue uptake at 1 h: 5 ± 1.7 %ID/g
[3]; [23]
  tissue uptake at 1 h: 1.4 ± 0.8 %ID/g
[3]; [24]
  tissue uptake at 1 h: 0.6 ± 0.1 %ID/g
[3]; [25]
  tissue uptake at 1 h: 1.1 ± 0.4 %ID/g
[3]; [26]
  tissue uptake at 1 h: 0.8 ± 0.2 %ID/g
[3]; [27]
  tissue uptake at 2 h: 0.6 ± 0.4 %ID/g
[3]; [28]
  tissue uptake at 1 h: 4.5 ± 1 %ID/g
[3]; [29]
  tissue uptake at 1 h: 3.1 ± 0.5 %ID/g
AR42J xenografts
  urine: 174.2 ± 73.4 % ID/g
  defluorination in vivo (in words): no indication of defluorination

## C[C@@H](O)[C@@H]1NC(=O)[C@H](CCCCN)NC(=O)[C@@H](Cc2c[nH]c3ccccc23)NC(=O)[C@H](Cc2ccc(O)cc2)NC(=O)[C@@H](NC(=O)[C@@H](Cc2ccccc2)NC(=O)CCOCCOCCOCCOCCON=Cc2ccc(CNC(=O)OC3CCCc4cnnc(-c5ccc(CC(=O)NCC[N+](C)(C)C[B-](F)(F)F)cc5)c4CC3)cc2)CSSC[C@@H](C(=O)N[C@H](CO)[C@@H](C)O)NC1=O (some centres unmarked) [[^18F]14]
[1]; sampled at 9 h
  stability in the formulated solution: stable
[2]; radio-HPLC
  enzymatic stability (in words): a polar radiometabolite was detected
[3]; baseline
  tissue to tissue ratio at 1 h: 0.3
[3]; baseline, read-out: blood
  tissue uptake at 1 h: 10.2 ± 2.3 %ID/g
[3]; baseline, read-out: brain
  tissue uptake at 1 h: 0.3 ± 0.1 %ID/g
[3]; [4]
  tissue uptake at 1 h: 17.8 ± 5.2 %ID/g
[3]; baseline, read-out: heart
  tissue uptake at 1 h: 2.4 ± 0.7 %ID/g
[3]; baseline, read-out: kidney
  tissue uptake at 1 h: 14.3 ± 4.5 %ID/g
[3]; baseline, read-out: liver
  tissue uptake at 1 h: 30 ± 9.4 %ID/g
[3]; baseline, read-out: lung
  tissue uptake at 1 h: 6.2 ± 2.4 %ID/g
[3]; baseline, read-out: muscle
  tissue uptake at 1 h: 0.6 ± 0.2 %ID/g
[3]; baseline, read-out: pancreas
  tissue uptake at 1 h: 1.1 ± 0.2 %ID/g
[3]; baseline, read-out: skin
  tissue uptake at 1 h: 2.1 ± 0.9 %ID/g
[3]; baseline, read-out: spleen
  tissue uptake at 1 h: 1.2 ± 0.5 %ID/g
[3]; baseline, read-out: urine
  tissue uptake at 1 h: ~85 %ID/g
[3]; [5]
  tissue uptake at 1 h: 7.4 ± 1.5 %ID/g
[3]; [6]
  tissue uptake at 1 h: 0.3 ± 0.1 %ID/g
[3]; [7]
  tissue uptake at 1 h: 10.7 ± 6.3 %ID/g
[3]; [8]
  tissue uptake at 1 h: 1.9 ± 0.4 %ID/g
[3]; [9]
  tissue uptake at 1 h: 11.4 ± 3.7 %ID/g
[3]; [10]
  tissue uptake at 1 h: 26.2 ± 15.8 %ID/g
[3]; [11]
  tissue uptake at 1 h: 5.5 ± 2.7 %ID/g
[3]; [12]
  tissue uptake at 1 h: 0.5 ± 0.1 %ID/g
[3]; [13]
  tissue uptake at 1 h: 0.8 ± 0.5 %ID/g
[3]; [14]
  tissue uptake at 1 h: 1.6 ± 0.4 %ID/g
[3]; [15]
  tissue uptake at 1 h: 0.9 ± 0.1 %ID/g
[3]; [16]
  tissue uptake at 1 h: 41.9 ± 15.7 %ID/g
[3]; [17]
  tissue uptake at 1 h: 1.1 ± 1.1 %ID/g
[3]; [18]
  tissue uptake at 1 h: 0.7 ± 0.3 %ID/g
[3]; [19]
  tissue uptake at 1 h: 1.1 ± 0.5 %ID/g
[3]; [20]
  tissue uptake at 2 h: 1.7 ± 0.1 %ID/g
[3]; [21]
  tissue uptake at 1 h: 2.6 ± 0.8 %ID/g
[3]; [22]
  tissue uptake at 1 h: 1.9 ± 0.4 %ID/g
[3]; [23]
  tissue uptake at 1 h: 0.6 ± 0.2 %ID/g
[3]; [24]
  tissue uptake at 1 h: 0.6 ± 0.2 %ID/g
[3]; [25]
  tissue uptake at 1 h: 1.3 ± 0.6 %ID/g
[3]; [26]
  tissue uptake at 1 h: 1 ± 0.6 %ID/g
[3]; [27]
  tissue uptake at 2 h: 2.9 ± 1.4 %ID/g
[3]; [28]
  tissue uptake at 1 h: 3.1 ± 0.7 %ID/g
[3]; [29]
  tissue uptake at 1 h: 2.2 ± 0.6 %ID/g
AR42J xenografts
  urine: 84.9 ± 58.6 % ID/g
  defluorination in vivo (in words): A minor degree of defluorination could not be ruled out
